The values that follow come from patent publication US7160888B2, “[1,8]naphthyridin-2-ones and related compounds for the treatment of schizophrenia” (Warner Lambert Company LLC, priority 2003, dated 2007).

For orientation: Emax means the size of the effect at its maximum, as opposed to the concentration needed.

Sequence of D2 receptor (P14416 whole entry): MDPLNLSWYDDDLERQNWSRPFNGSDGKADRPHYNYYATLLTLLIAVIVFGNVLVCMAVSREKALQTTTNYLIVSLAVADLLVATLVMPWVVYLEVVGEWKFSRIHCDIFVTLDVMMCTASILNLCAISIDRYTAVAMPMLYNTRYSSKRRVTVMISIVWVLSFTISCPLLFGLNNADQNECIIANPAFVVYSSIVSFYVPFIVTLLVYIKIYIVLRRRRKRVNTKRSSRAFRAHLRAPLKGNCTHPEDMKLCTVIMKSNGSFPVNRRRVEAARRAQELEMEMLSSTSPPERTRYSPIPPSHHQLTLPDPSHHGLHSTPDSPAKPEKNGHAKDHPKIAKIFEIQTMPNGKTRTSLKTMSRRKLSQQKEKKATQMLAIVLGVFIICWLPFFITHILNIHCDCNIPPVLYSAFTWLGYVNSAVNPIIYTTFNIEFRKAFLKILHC

The first test concerns the target D2 receptor (Homo sapiens, UniProt P14416). Description: [3H]Thymidine uptake assay for D2 intrinsic activity. To be noted: Table 1; test compound 1 μM; 1 μM Quinpirole = 100% intrinsic activity. Type of test: cell-based.
Turning to `O=c1ccc2cnc(OCCCCN3CCN(c4cccc5c4CCC5)CC3)cc2[nH]1` [Example I15, 7-[4-(4-Indan-4-yl-piperazin-1-yl)-butoxy]-1H-[1,6]naphthyridin-2-one], the Emax at 1 µM was determined as 20%. Still for that read-out and setting: under `CC1(C)OC(=O)Nc2nc(CCCCCN3CCN(c4cccc(Cl)c4Cl)CC3)ccc21` [Example F9, 7-{5-[4-(2,3-Dichloro-phenyl)-piperazin-1-yl]-pentyl}-4,4-dimethyl-1,4-dihydro-pyrido[2,3-d][1,3]oxazin-2-one] stands 11%; under `CC1(C)Cc2ccc(OCCCCN3CCN(c4cccc(Cl)c4Cl)CC3)nc2NC1=O` [Example D13, 7-{4-[4-(2,3-Dichloro-phenyl)-piperazin-1-yl]-butoxy}-3,3-dimethyl-3,4-dihydro-1H-[1,8]naphthyridin-2-one], 19%. Molecule `CC(=O)c1c(F)cccc1N1CCN(CCCCOc2ccc3ccc(=O)[nH]c3n2)CC1` [Example B5, 7-{4-[4-(2-Acetyl-3-fluoro-phenyl)-piperazin-1-yl]-butoxy}-1H-[1,8]naphthyridin-2-one] gave an Emax at 1 µM of 2%. `O=C1CCc2ccc(OCCCN3CCN(c4cccc5ccccc45)CC3)nc2N1` [Example C3, 7-[3-(4-Naphthalen-1-yl-piperazin-1-yl)-propoxy]-3,4-dihydro-1H-[1,8]naphthyridin-2-one] yielded an Emax at 1 µM of 22%.

Molecule `O=c1ccc2ccc(OCCCN3CCN(c4cccc5ccccc45)CC3)nc2[nH]1` [Example C2, 7-[3-(4-Naphthalen-1-yl-piperazin-1-yl)-propoxy]-1H-[1,8]naphthyridin-2-one] yielded an Emax at 1 µM of 24%. `Cc1nc(OCCCCN2CCN(c3cccc4ccc(F)cc34)CC2)nc2c1ccc(=O)n2C` [Example H13, 2-{4-[4-(7-Fluoro-naphthalen-1-yl)-piperazin-1-yl]-butoxy}-4,8-dimethyl-8H-pyrido[2,3-d]pyrimidin-7-one] came in with an Emax at 1 µM of 36%.

On to `O=c1ccc2ccc(OCCCCN3CCN(c4ccccc4C(F)(F)F)CC3)nc2[nH]1` [Example B16, 7-{4-[4-(2-Trifluoromethyl-phenyl)-piperazin-1-yl]-butoxy}-1H-[1,8]naphthyridin-2-one], for which the Emax at 1 µM is 41%. Same read-out and setting: to `O=C1CCc2cnc(OCCCCN3CCN(c4cccc5c4CCC5)CC3)cc2N1` [Example I5, 7-[4-(4-Indan-4-yl-piperazin-1-yl)-butoxy]-3,4-dihydro-1H-[1,6]naphthyridin-2-one] belongs 23%; to `CC(=O)c1cccc2c(N3CCN(CCCCOc4ccc5ccc(=O)[nH]c5n4)CC3)cccc12` [Example B64, 7-{4-[4-(5-Acetyl-naphthalen-1-yl)-piperazin-1-yl]-butoxy}-1H-[1,8]naphthyridin-2-one], 27%. The molecule `CC1(C)C(=O)Nc2nc(OCCCCN3CCN(c4cccc(Cl)c4Cl)CC3)ccc2C1=O` [Example D14, 7-{4-[4-(2,3-Dichloro-phenyl)-piperazin-1-yl]-butoxy}-3,3-dimethyl-1H-[1,8]naphthyridine-2,4-dione] showed an Emax at 1 µM of 3%. The same measure, in the same setting: under `O=c1ccc2ccc(OCCCCN3CCN(c4cccc5ccccc45)CC3)nc2[nH]1` [Example B47, 7-[4-(4-Naphthalen-1-yl-piperazin-1-yl)-butoxy]-1H-[1,8]naphthyridin-2-one] stands 44%; under `O=c1ccc2ccc(OCCCCN3CCN(c4cccc(C5CC5)n4)CC3)nc2[nH]1` [Example B29, 7-{4-[4-(6-Cyclopropyl-pyridin-2-yl)-piperazin-1-yl]-butoxy}-1H-[1,8]naphthyridin-2-one], 32%. Regarding `Cc1cc(OCCCCN2CCN(c3cccc4ccccc34)CC2)nc2c1CCC(=O)N2` [Example E10, 5-Methyl-7-[4-(4-naphthalen-1-yl-piperazin-1-yl)-butoxy]-3,4-dihydro-1H-[1,8]naphthyridin-2-one], the Emax at 1 µM was found to be 31%. The same measure, in the same setting: under `O=C1CCc2ccc(OCCCCN3CCN(c4cccc5c4C(=O)CCC5)CC3)nc2N1` [Example A51, 7-{4-[4-(8-Oxo-5,6,7,8-tetrahydro-naphthalen-1-yl)-piperazin-1-yl]-butoxy}-3,4-dihydro-1H-[1,8]naphthyridin-2-one] stands 20%; under `O=c1ccc2ccc(OCCCCN3CCN(c4cccc5ccc(Cl)cc45)CC3)nc2[nH]1` [Example B56, 7-{4-[4-(7-Chloro-naphthalen-1-yl)-piperazin-1-yl]-butoxy}-1H-[1,8]naphthyridin-2-one], 28%; under `O=c1ccc2cnc(OCCCCN3CCN(c4cccc5ccccc45)CC3)cc2[nH]1` [Example I16, 7-[4-(4-Naphthalen-1-yl-piperazin-1-yl)-butoxy]-1H-[1,6]naphthyridin-2-one], 27%. The molecule `O=C1NCc2ccc(OCCCCN3CCN(c4cccc5c4CCCC5)CC3)nc2N1` [Example F4, 7-{4-[4-(5,6,7,8-Tetrahydro-naphthalen-1-yl)-piperazin-1-yl]-butoxy}-3,4-dihydro-1H-pyrido[2,3-d]pyrimidin-2-one] yielded an Emax at 1 µM of 23%. In turn, `CC1(C)C(=O)Nc2nc(OCCCCN3CCN(c4cccc(Cl)c4Cl)CC3)ccc2C1O` (centres unmarked) [Example D15, 7-{4-[4-(2,3-Dichloro-phenyl)-piperazin-1-yl]-butoxy}-4-hydroxy-3,3-dimethyl-3,4-dihydro-1H-[1,8]naphthyridin-2-one] displayed an Emax at 1 µM of 25%. `Cc1cc2ccc(OCCCCN3CCN(c4cccc(Cl)c4Cl)CC3)nc2[nH]c1=O` [Example D4, 7-{4-[4-(2,3-Dichloro-phenyl)-piperazin-1-yl]-butoxy}-3-methyl-1H-[1,8]naphthyridin-2-one] displayed an Emax at 1 µM of 16%. For `O=c1ccc2ccc(OCCCCN3CCN(c4cccc5cc(Cl)ccc45)CC3)nc2[nH]1` [Example B57, 7-{4-[4-(6-Chloro-naphthalen-1-yl)-piperazin-1-yl]-butoxy}-1H-[1,8]naphthyridin-2-one], the Emax at 1 µM came to 21%.

The test is the same for the next values; noted with them: Table 2; test compound 1 μM; 1 μM Quinpirole = 100% intrinsic activity.
Take `O=C1CCc2ccc(OCCCCN3CCN(c4cccc5c4OCCC5)CC3)nc2N1` [Example A4′, 7-[4-(4-Chroman-8-yl-piperazin-1-yl)-butoxy]-3,4-dihydro-1H-[1,8]naphthyridin-2-one]: the Emax at 1 µM was 18%. Still for that read-out and setting: under `O=C1CCc2cc(F)c(OCCCCN3CCN(c4cccc5cccnc45)CC3)nc2N1` [Example D1′, 6-Fluoro-7-[4-(4-quinolin-8-yl-piperazin-1-yl)-butoxy]-3,4-dihydro-1H-[1,8]naphthyridin-2-one] stands 24%. Take `CC1(C)Cc2cccc(N3CCN(CCCCOc4ncc5ccc(=O)[nH]c5n4)CC3)c2O1` [Example G8′, 2-{4-[4-(2,2-Dimethyl-2,3-dihydro-benzofuran-7-yl)-piperazin-1-yl]-butoxy}-8H-pyrido[2,3-d]pyrimidin-7-one]: the Emax at 1 µM turned out to be 32%. In the case of `O=C1CCc2ccc(OCCCCN3CCN(c4cccc5c4OC4(C=C5)CCCC4)CC3)nc2N1` [Example A7′, 7-{4-[4-(Spiro[chromene-2,1′-cyclopentan]-8-yl)-piperazin-1-yl]-butoxy}-3,4-dihydro-1H-[1,8]naphthyridin-2-one], the Emax at 1 µM came out at 34%. Turning to `O=C1CCc2ccc(OCCCCN3CCN(c4cccc5c4CCCO5)CC3)nc2N1` [Example A13′, 7-[4-(4-Chroman-5-yl-piperazin-1-yl)-butoxy]-3,4-dihydro-1H-[1,8]naphthyridin-2-one], the Emax at 1 µM is 14%.
